Reference: US20180099931A1 (AbbVie S.à.r.l., priority 2016, published 2018)
Read-outs that look alike come from different tables or passages of the source.

Biological target: T1, F508delCFTR (Homo sapiens, UniProt P13569, DEL508-508)
T1 construct: expressed in transfected cells; host or cells: CFBE41o- human lung-derived epithelial cells (CFBE4lo-F508delCFTR-HRP), doxycycline-inducible
Assay: Cell Surface Expression-Horse Radish Peroxidase (CSE-HRP) Assay;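 for Maximum % activity (with co-corrector): co-corrector and positive control are both the same reference corrector at 2 µM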;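 for Maximum % activity (without co-corrector): percent of the 2 µM on-plate positive control corrector response above DMSO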
Type: cell-based
Conditions: for Maximum % activity (with co-corrector) / Emax: maximum at any tested concentration, normalized to on-plate positive control; for Emax: read-out: Maximum % activity (without co-corrector)
Procedure: Cell Surface Expression-Horse Radish Peroxidase (CSE-HRP) Assay;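 for Maximum % activity (with co-corrector): co-corrector and positive control are both the same reference corrector at 2 µM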;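 for Maximum % activity (without co-corrector): percent of the 2 µM on-plate positive control corrector response above DMSO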
The development was achieved by expressing the F508delCFTR mutation along with a horseradish peroxidase (HRP) in the fourth exofacial loop, and then measuring the HRP activity using luminescence readout from these cells, CFBE4lo-F508delCFTR-HRP, that were incubated overnight with the test corrector compounds, either without or with the co-corrector. […] The test compounds were then added either without or with a co-corrector at the required concentrations and further incubated for 18-24 hours at 33° C. The highest concentration tested was 20 μM with an 8-point concentration response curve using a 3-fold dilution in both the test compound without or with the co-corrector. Three replicate plates were run to determine one EC50. All plates contained negative controls (dimethyl sulfoxide, DMSO) and positive control (2 μM of 3-[(2R,4R)-4-({[1-(2,2-difluoro-1,3-benzodioxol-5-yl)cyclopropyl]carbonyl}amino)-7-methoxy-3,4-dihydro-2H-chromen-2-yl]benzoic acid) as well as on-plate concentration response of the positive control. […] The raw counts from the experiment were analyzed using Accelrys® Assay Explorer v3.3.
1−[3*SDPositive Control+3*SDNegative Control/Absolute(MeanPositive Control−MeanNegative Control)]
wherein “SD” is standard deviation.
The % activity measured at each of the 8 test concentrations of the test compound added either without or with a co-corrector (2 μM of 3-[(2R,4R)-4-({[1-(2,2-difluoro-1,3-benzodioxol-5-yl)cyclopropyl]carbonyl}amino)-7-methoxy-3,4-dihydro-2H-chromen-2-yl]benzoic acid) was normalized to the on-plate positive control using the following formulae:
% activity(Test compound without co-corrector)=[(test compound without co-corrector response−DMSO response)/(positive control response−DMSO response)]*100
% activity(Test compound with co-corrector)=[(test compound with co-corrector response−DMSO response)/(positive control response−DMSO response)]*100
The maximum % activity achieved for the test compound either without or with a co-corrector at any tested concentration is presented in Table 4 along with the respective EC50's calculated using the following general sigmoidal curve with variable Hill slope equation (described as Model 42 in the Accelrys® Assay Explorer v3.3 software):
General sigmoidal curve with concentration, response, top, bottom, EC50 and Hill slope. This model describes a sigmoidal curve with an adjustable baseline, a. The equation can be used to fit curves where response is either increasing or decreasing with respect to the independent variable, “x”.
“x” is a concentration of drug under test. “y” is the response. “a” is the maximum response, and “d” is the minimum response “c” is the inflection point (EC50) for the curve. That is, “y” is halfway between the lower and upper asymptotes when x=c. “b” is the slope-factor or Hill coefficient. The sign of b is positive when the response increases with increasing dose and is negative when the response decreases with increasing dose (inhibition).

[1] = test compound without co-corrector, read-out: EC50 (without co-corrector)
[2] = with co-corrector (2 μM of 3-[(2R,4R)-4-({[1-(2,2-difluoro-1,3-benzodioxol-5-yl)cyclopropyl]carbonyl}amino)-7-methoxy-3,4-dihydro-2H-chromen-2-yl]benzoic acid), read-out: EC50 (with co-corrector)
[3] = test compound without co-corrector
[4] = with co-corrector (2 μM of 3-[(2R,4R)-4-({[1-(2,2-difluoro-1,3-benzodioxol-5-yl)cyclopropyl]carbonyl}amino)-7-methoxy-3,4-dihydro-2H-chromen-2-yl]benzoic acid)

T1 sequence (P13569 with tags, fused parts or gaps DEL508-508): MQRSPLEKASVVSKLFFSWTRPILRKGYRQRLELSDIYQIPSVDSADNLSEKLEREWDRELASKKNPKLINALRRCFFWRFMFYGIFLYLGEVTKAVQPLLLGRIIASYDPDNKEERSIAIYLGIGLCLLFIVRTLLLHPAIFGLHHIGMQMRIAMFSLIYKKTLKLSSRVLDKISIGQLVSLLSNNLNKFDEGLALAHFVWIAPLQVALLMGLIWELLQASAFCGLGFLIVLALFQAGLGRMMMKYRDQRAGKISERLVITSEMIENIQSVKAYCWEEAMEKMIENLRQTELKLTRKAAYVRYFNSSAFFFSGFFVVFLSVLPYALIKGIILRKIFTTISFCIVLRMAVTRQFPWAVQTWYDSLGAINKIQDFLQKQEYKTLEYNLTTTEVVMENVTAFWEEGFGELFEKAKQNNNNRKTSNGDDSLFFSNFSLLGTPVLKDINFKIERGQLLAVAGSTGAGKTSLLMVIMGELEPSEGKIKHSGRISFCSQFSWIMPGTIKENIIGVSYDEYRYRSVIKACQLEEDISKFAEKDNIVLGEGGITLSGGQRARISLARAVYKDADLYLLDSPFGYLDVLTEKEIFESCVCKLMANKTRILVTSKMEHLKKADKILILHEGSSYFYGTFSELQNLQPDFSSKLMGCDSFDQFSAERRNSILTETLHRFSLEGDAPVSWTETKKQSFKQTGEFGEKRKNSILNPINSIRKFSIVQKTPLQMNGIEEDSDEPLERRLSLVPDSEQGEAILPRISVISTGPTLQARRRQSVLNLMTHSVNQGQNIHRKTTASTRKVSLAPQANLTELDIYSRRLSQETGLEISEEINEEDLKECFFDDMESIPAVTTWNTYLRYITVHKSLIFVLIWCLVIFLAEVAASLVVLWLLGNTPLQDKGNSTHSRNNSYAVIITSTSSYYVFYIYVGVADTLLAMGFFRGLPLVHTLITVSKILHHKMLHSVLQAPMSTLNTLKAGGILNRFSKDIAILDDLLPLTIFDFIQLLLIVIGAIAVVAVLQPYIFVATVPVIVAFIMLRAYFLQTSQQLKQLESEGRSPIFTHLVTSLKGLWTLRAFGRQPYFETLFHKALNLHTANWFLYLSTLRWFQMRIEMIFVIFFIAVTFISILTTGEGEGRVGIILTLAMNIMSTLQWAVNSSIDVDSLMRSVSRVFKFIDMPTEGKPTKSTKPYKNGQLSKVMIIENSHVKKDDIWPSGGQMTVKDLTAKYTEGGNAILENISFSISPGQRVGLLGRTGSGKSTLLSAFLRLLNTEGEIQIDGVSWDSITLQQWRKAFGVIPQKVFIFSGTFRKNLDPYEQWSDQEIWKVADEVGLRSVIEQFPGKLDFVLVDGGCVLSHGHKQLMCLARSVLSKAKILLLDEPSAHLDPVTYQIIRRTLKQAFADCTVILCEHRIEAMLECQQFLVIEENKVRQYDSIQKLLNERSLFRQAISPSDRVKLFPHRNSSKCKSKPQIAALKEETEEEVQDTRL

EC50 [1] [nM]	EC50 [2] [nM]	Maximum % activity (with co-corrector) (with co-corrector (2 μM))	Emax (without co-corrector) [%]	EC50 (CSE-HRP, test compound without co-corrector, read-out: EC50 (without co-corrector)) [nM]	EC50 (CSE-HRP, with co-corrector (2 μM of 3-[(2R,4R)-4-({[1-(2,2-difluoro-1,3-benzodioxol-5-yl)cyclopropyl]carbonyl}amino)-7-methoxy-3,4-dihydro-2H-chromen-2-yl]benzoic acid), read-out: EC50 (with co-corrector)) [nM]	Maximum % activity (with co-corrector) (CSE-HRP, with co-corrector (2 μM))	Emax (CSE-HRP, without co-corrector) [%]	Emax [3] [%]	Maximum % activity (with co-corrector) [4]	Compound
1000 to 10000	1000 to 10000	+++ (≥350)	< 100	–	–	–	–	–	–	COc1ccc(C2(C(F)(F)F)CC2)nc1CN[C@H]1[C@H](C(C)(C)C)[C@@H](C(=O)O)N(C(=O)C2CCCCC2)[C@H]1c1ccccc1 [Example I-170]
1000 to 10000	1000 to 10000	+++ (≥350)	100 to 200	–	–	–	–	–	–	COc1ccc(C23CC(C2)C3)cc1CN[C@H]1[C@H](C(C)(C)C)[C@@H](C(=O)O)N(C(=O)[C@H]2CCCCO2)[C@H]1c1cccnc1N(C)C [Example 52, (2S,3S,4S,5S)-4-({[5-(bicyclo[1.1.1]pentan-1-yl)-2-methoxyphenyl]methyl}amino)-3-tert-butyl-5-[2-(dimethylamino)pyridin-3-yl]-1-[(2R)-oxane-2-carbonyl]pyrrolidine-2-carboxylic acid]
–	–	–	–	1000 to 10000	1000 to 10000	+++ (≥350)	100 to 200	–	–	COc1cc(C(F)(F)F)ccc1CN[C@H]1[C@H](C(C)(C)C)[C@@H](C(=O)O)N(C(=O)[C@H](OC)c2ccccc2)[C@H]1c1cccnc1N(C)C [II-87]
1000 to 10000	1000 to 10000	+++ (≥350)	> 200	–	–	–	–	–	–	COc1ccc(C2(C)CCC2)cc1CN[C@H]1[C@H](C(C)(C)C)[C@@H](C(=O)O)N(C(=O)OC(C)C)[C@H]1c1cccnc1N(C)C [Example 80, (2S,3S,4S,5S)-3-tert-butyl-5-[2-(dimethylamino)pyridin-3-yl]-4-({[2-methoxy-5-(1-methylcyclobutyl)phenyl]methyl}amino)-1-{[(propan-2-yl)oxy]carbonyl}pyrrolidine-2-carboxylic acid]
1000 to 10000	1000 to 10000	+++ (≥350)	> 200	–	–	–	–	–	–	COc1cc(C(F)(F)F)ccc1CN[C@@H]1[C@@H](C(C)(C)C)[C@H](C(=O)O)N(C(=O)OC(C)C)[C@@H]1c1cccnc1N(C)C (racemic) [Example I-28]
1000 to 10000	1000 to 10000	–	–	–	–	–	–	< 100	+++ (≥350)	COc1ccccc1CN[C@@H]1[C@@H](C(C)(C)C)[C@H](C(=O)O)N(C(=O)C2CCCCC2)[C@@H]1c1ccccc1 (racemic) [III-12]
1000 to 10000	1000 to 10000	–	–	–	–	–	–	< 100	++ (≥150 and <350)	COc1cc(Cl)ccc1CN[C@@H]1[C@@H](C(C)(C)C)[C@H](C(=O)O)N(C(=O)C2CCCCC2)[C@@H]1c1ccccn1 (racemic) [III-82]
1000 to 10000	1000 to 10000	+++ (≥350)	100 to 200	–	–	–	–	–	–	COc1ccc(C(C)(C)C)cc1CN[C@H]1[C@H](C(C)(C)C)[C@@H](C(=O)O)N(C(=O)C2CC3CC3C2)[C@H]1c1ccccc1 (stereo partly drawn) [Example I-186]
1000 to 10000	1000 to 10000	+++ (≥350)	100 to 200	–	–	–	–	–	–	COc1ncc(C2CCC2)cc1CN[C@H]1[C@H](C23CC(C2)C3)[C@@H](C(=O)O)N(C(=O)OC(C)C)[C@H]1c1ccccc1 [Example I-236]
1000 to 10000	< 1000	+++ (≥350)	100 to 200	–	–	–	–	–	–	COc1ccc(C(F)(F)F)cc1CN[C@H]1[C@H](C23CC(C2)C3)[C@@H](C(=O)O)N(C(=O)C2CCCCC2)[C@H]1c1ccccc1 [Example 56]
1000 to 10000	< 1000	+++ (≥350)	–	–	–	–	–	100 to 200	–	COc1ccc(C(C)(C)C)cc1CN[C@H]1[C@H](C(C)(C)C)[C@@H](C(=O)O)N(C(=O)c2cnn(-c3cccc(C)c3)c2C(C)C)[C@H]1c1ccccc1 [III-194]
1000 to 10000	1000 to 10000	+++ (≥350)	< 100	–	–	–	–	–	–	COc1ccc(C(C)(C)C)cc1CN[C@H]1[C@H](C(C)(C)C)[C@@H](C(=O)O)N(C(=O)c2cnn3ccccc23)[C@H]1c1ccccc1 [Example I-143]
